From US12486280B2, “CDK inhibitors and uses thereof” (California Institute of Technology, priority 2018, dated 2025)
Where two headings read alike, the source gives them in different places.

Assays:
[1] = system: drug-resistant cell lines of Table 2 (NCI-H1437, OV207, HCC1806, NCI-H2172); test: Cell Line Growth Retardation Assay, resistant cohort; type: cell-based, human; conditions: geometric mean over resistant cohort, 6 days growth, read-out: AvgResIC50
Description: (§1) Cells were seeded at densities of 1,000-5,000 cells per well in 48-well tissue culture plates. After a 24 hours rest period, cells were treated with compound at 10 μM, 2 μM, 0.4 μM, 0.08 μM, 0.016 μM, and 0.0032 μM. A group of cells were treated with the vehicle in which the compound was prepared and served as a control. The cells were grown in the presence of compounds for 6 days and were counted on day 0 and day 6. A11 cell counting was performed using a Synentec Cellavista plate imager. […] Growth inhibition was calculated as a ratio of cell population doublings in the presence of compound versus the absence of compound. […] IC50 values for each compound (see Table 3; reported in μM) were calculated by fitting curves to data points from each dose-response assay using the Proc NLIN function in SAS for Windows version 9.2 (SAS Institute, Inc.).
(§2) These sensitive and resistant cohorts were interrogated for response to each compound, and IC50s were calculated for each cell line using the same technique described above. Average IC50s for the sensitive and resistant cohorts were calculated as geometric means of the group. “Therapeutic Window” for each compound was calculated by dividing the average IC50 for the drug-resistant group by the average IC50 for the drug-sensitive group.

[2] = system: drug-sensitive cell lines of Table 2 (EFM-19, MDA-MB-453, T-47D, ZR-75-1, NCI-H441, OVTOKO, NCI-H1838); test: Cell Line Growth Retardation Assay, sensitive cohort; type: cell-based, human; conditions: for IC50: geometric mean over sensitive cohort, 6 days growth, read-out: AvgSensIC50; for Ther Window: average IC50 drug-resistant group divided by average IC50 drug-sensitive group
Description: as §1, §2

CDK6 = CDK6 (Homo sapiens (Human), UniProt Q00534); test: Cdk4 and 6 Enzymatic Inhibition Assay (radiometric 33PanQinase, Ki determination); type: biochemical
Sequence of CDK6 (Q00534 whole entry): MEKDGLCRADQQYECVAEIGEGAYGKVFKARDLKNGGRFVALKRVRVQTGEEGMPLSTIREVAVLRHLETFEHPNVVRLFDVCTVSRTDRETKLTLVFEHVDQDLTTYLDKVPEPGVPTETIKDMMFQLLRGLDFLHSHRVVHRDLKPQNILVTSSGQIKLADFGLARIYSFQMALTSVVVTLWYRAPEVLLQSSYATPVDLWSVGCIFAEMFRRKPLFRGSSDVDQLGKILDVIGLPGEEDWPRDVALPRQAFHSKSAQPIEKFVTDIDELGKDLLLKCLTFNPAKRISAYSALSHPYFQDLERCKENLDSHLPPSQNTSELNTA
Sequence of CDK6 (P24385 whole entry partner): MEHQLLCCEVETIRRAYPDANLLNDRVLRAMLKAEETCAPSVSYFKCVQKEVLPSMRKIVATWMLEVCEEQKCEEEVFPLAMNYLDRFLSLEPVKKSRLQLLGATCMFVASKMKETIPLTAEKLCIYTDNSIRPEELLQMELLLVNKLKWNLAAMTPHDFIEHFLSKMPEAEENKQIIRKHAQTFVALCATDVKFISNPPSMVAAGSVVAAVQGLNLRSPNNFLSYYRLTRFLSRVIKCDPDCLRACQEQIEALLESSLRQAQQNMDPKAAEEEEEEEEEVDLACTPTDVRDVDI
Description: (§3) 10 distinct concentrations were prepared, with a dilution endpoint of 6×10^−9 M in 100% DMSO. 100% DMSO was used as a control. 10 μL from each of the serial dilutions were aliquoted into separate wells of a 96-well plate and 90 μL of water were added to each of those wells. The plate was shaken thoroughly, and 5 μL from each of the plate's wells were transferred into wells of the assay plate. The final volume of wells in the assay plate was 50 μL. A11 compounds were tested at 10 assay concentrations in the range from 2×10^−6 M to 6×10^−11 M. The final DMSO concentration in the wells of the assay plate was 1% in all cases.
(§4) A radiometric protein kinase assay (33PanQinase® Activity Assay) was used for measuring the kinase activity of six protein kinases. A11 kinase assays were performed in 96-well FlashPlates™ from PerkinElmer (Boston, MA, USA). The assay for all protein kinases contained 70 mM HEPES-NaOH pH 7.5, 3 mM MgCl2, 3 mM MnCl2, 3 μM Na-orthovanadate, 1.2 mM DTT, 50 μg/mL PEG20000, ATP [γ-33P]-ATP (approx. 9×1005 cpm per well), protein kinase and substrate. The reaction cocktails were incubated at 30° C. for 60 minutes. The reaction was stopped with 50 μL of 2% (v/v) H3PO4, and plates were aspirated and washed two times with 200 μL 0.9% (w/v) NaCl. Incorporation of ^33Pi was determined with a microplate scintillation counter (Microbeta, Wallac).

CDK4 = CDK4 (Homo sapiens (Human), UniProt P11802); test: as above; type: biochemical
Sequence of CDK4 (P11802 whole entry): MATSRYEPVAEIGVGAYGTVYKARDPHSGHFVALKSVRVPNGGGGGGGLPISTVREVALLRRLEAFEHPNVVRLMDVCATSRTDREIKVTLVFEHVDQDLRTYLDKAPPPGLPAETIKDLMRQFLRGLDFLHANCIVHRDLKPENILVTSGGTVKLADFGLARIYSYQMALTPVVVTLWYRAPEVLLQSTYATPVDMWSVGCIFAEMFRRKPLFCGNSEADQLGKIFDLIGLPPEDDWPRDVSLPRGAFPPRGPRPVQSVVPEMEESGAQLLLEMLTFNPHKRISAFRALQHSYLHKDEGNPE
Sequence of CDK4 (P24385 whole entry partner): as the sequence (P24385 whole entry partner) above
Description: as §3, §4

IC50 ([1]; Homo sapiens, […])	IC50 ([2]; Homo sapiens, […])	Ki (CDK6)	Ki (CDK4)	IC50 [1]	IC50 [2]	Structure (SMILES)	Ther Window [2]
500 nM	100 nM	3.14 nM	0.75 nM	–	–	Cc1nc2c(F)cc(-c3nc(Nc4ccc(CN5CC6(CCC6)C5)cn4)ncc3F)cc2n1C(C)C [Compound A63, N-(5-((2-azaspiro[3.3]heptan-2-yl)methyl)pyridin-2-yl)-5-fluoro-4-(4-fluoro-1-isopropyl-2-methyl-1H-benzo[d]imidazol-6-yl)pyrimidin-2-amine]	5.03
1000 nM	340 nM	19.8 nM	2.64 nM	–	–	Cc1nc2c(F)cc(-c3nc(Nc4ccc(CN5CCO[C@](C)(CC(=O)N6CCC6)C5)cn4)ncc3F)cc2n1C(C)C [Compound A58, (R)-1-(azetidin-1-yl)-2-(4-((6-((5-fluoro-4-(4-fluoro-1-isopropyl-2-methyl-1H-benzo[d]imidazol-6-yl)pyrimidin-2-yl)amino)pyridin-3-yl)methyl)-2-methylmorpholin-2-yl)ethan-1-one]	2.94
1000 nM	210 nM	11.9 nM	2.49 nM	–	–	Cc1nc2c(F)cc(-c3nc(Nc4ccc(CN5CCO[C@@](C)(C[C@H](C)O)C5)cn4)ncc3F)cc2n1C(C)C (single isomer, unassigned) [Compound A53]	4.85
1000 nM	260 nM	14.8 nM	2.4 nM	–	–	Cc1nc2c(F)cc(-c3nc(Nc4ccc(CN5CCO[C@](C)(CC(=O)N6CC(F)(F)C6)C5)cn4)ncc3F)cc2n1C(C)C [Compound A56, (R)-1-(3,3-difluoroazetidin-1-yl)-2-(4-((6-((5-fluoro-4-(4-fluoro-1-isopropyl-2-methyl-1H-benzo[d]imidazol-6-yl)pyrimidin-2-yl)amino)pyridin-3-yl)methyl)-2-methylmorpholin-2-yl)ethan-1-one]	3.76
730 nM	150 nM	4.53 nM	0.9 nM	–	–	Cc1nc2c(F)cc(-c3nc(Nc4ccc(CN5CC6(C5)CC(F)(F)C6)cn4)ncc3F)cc2n1C(C)C [Compound A64, N-(5-((6,6-difluoro-2-azaspiro[3.3]heptan-2-yl)methyl)pyridin-2-yl)-5-fluoro-4-(4-fluoro-1-isopropyl-2-methyl-1H-benzo[d]imidazol-6-yl)pyrimidin-2-amine]	4.87
940 nM	220 nM	9.53 nM	1.53 nM	–	–	Cc1nc2c(F)cc(-c3nc(Nc4ccc(CN5CCC56COC6)cn4)ncc3F)cc2n1C(C)C [Compound A61, N-(5-((6-oxa-1-azaspiro[3.3]heptan-1-yl)methyl)pyridin-2-yl)-5-fluoro-4-(4-fluoro-1-isopropyl-2-methyl-1H-benzo[d]imidazol-6-yl)pyrimidin-2-amine]	4.27
1000 nM	350 nM	15.4 nM	3.55 nM	–	–	Cc1nc2c(F)cc(-c3nc(Nc4ccc(CN5CCO[C@@](C)(C[C@@H](C)O)C5)cn4)ncc3F)cc2n1C(C)C (single isomer, unassigned) [Compound A52]	2.82
1000 nM	390 nM	24 nM	3.91 nM	–	–	CCN(CC)C(=O)C[C@]1(C)CN(Cc2ccc(Nc3ncc(F)c(-c4cc(F)c5nc(C)n(C(C)C)c5c4)n3)nc2)CCO1 [Compound A57, (R)-2-(4-((6-((5-fluoro-4-(4-fluoro-1-isopropyl-2-methyl-1H-benzo[d]imidazol-6-yl)pyrimidin-2-yl)amino)pyridin-3-yl)methyl)-2-methylmorpholin-2-yl)-N,N-diethylacetamide]	2.56
1000 nM	620 nM	38.4 nM	8 nM	–	–	Cc1nc2c(F)cc(-c3nc(Nc4ccc(CN5CCOC(C)(CO)C5)cn4)ncc3F)cc2n1C(C)C (centres unmarked) [Compound A51]	1.62
1000 nM	1000 nM	108 nM	26.9 nM	–	–	CCOCC[C@]1(C)CN(Cc2ccc(Nc3ncc(F)c(-c4cc(F)c5nc(C)n(C(C)C)c5c4)n3)nc2)CCO1 [Compound A54]	1.00

Further lines, the compound ahead of its results:

Structure (SMILES)	IC50 ([1]; Homo sapiens, […])	IC50 ([2]; Homo sapiens, […])	Ki (CDK6)	Ki (CDK4)	IC50 [1]	IC50 [2]	Ther Window [2]
Cc1nc2c(F)cc(-c3nc(Nc4ccc(CN5CCO[C@]6(CCNC6)C5)cn4)ncc3F)cc2n1C(C)C [Compound A35]	1000 nM	190 nM	–	–	–	–	5.36
Cc1nc2c(F)cc(-c3nc(Nc4ccc(CN5CCO[C@]6(CCN(C(=O)OC(C)(C)C)C6)C5)cn4)ncc3F)cc2n1C(C)C [Compound A42]	–	–	34.9 nM	6.47 nM	–	–	–
Cc1nc2c(F)cc(-c3nc(Nc4ccc(CN5CCOC(C)(CC(C)N(C)C)C5)cn4)ncc3F)cc2n1C(C)C (centres unmarked) [Compound A25]	–	–	3.47 nM	0.8 nM	790 nM	120 nM	6.52
Cc1nc2c(F)cc(-c3nc(Nc4ccc(CN5CCO[C@@]6(CCN(C(=O)OC(C)(C)C)C6)C5)cn4)ncc3F)cc2n1C(C)C [Compound A41, tert-butyl (S)-9-((6-((5-fluoro-4-(4-fluoro-1-isopropyl-2-methyl-1H-benzo[d]imidazol-6-yl)pyrimidin-2-yl)amino)pyridin-3-yl)methyl)-6-oxa-2,9-diazaspiro[4.5]decane-2-carboxylate]	–	–	73.9 nM	11.3 nM	–	–	–
Cc1nc2c(F)cc(-c3nc(Nc4ccc(CN5CCOC(C)(CC(C)N(C)C)C5)cn4)ncc3F)cc2n1C(C)C (centres unmarked) [Compound A24]	–	–	0.16 nM	0.04 nM	130 nM	40 nM	3.02
Cc1nc2c(F)cc(-c3nc(Nc4ccc(CN5CCOC6(CCOC6)C5)cn4)ncc3F)cc2n1C(C)C (centres unmarked) [Compound A40]	980 nM	450 nM	7.99 nM	2.27 nM	–	–	2.18
CCCC1(C)CN(Cc2ccc(Nc3ncc(F)c(-c4cc(F)c5nc(C)n(C(C)C)c5c4)n3)nc2)CCO1 (centres unmarked) [Compound A46]	1000 nM	790 nM	1.95 nM	5.08 nM	–	–	1.26
Cc1nc2c(F)cc(-c3nc(Nc4ccc(CN5CCOC(C)(CCN(C)C)C5)cn4)ncc3F)cc2n1C(C)C (centres unmarked) [Compound A4]	960 nM	160 nM	5.09 nM	1.16 nM	–	–	5.80
C=CC[C@@]1(C)CN(Cc2ccc(Nc3ncc(F)c(-c4cc(F)c5nc(C)n(C(C)C)c5c4)n3)nc2)CCO1 [Compound A45, (S)—N-(5-((2-allyl-2-methylmorpholino)methyl)pyridin-2-yl)-5-fluoro-4-(4-fluoro-1-isopropyl-2-methyl-1H-benzo[d]imidazol-6-yl)pyrimidin-2-amine]	1000 nM	780 nM	1.43 nM	3.43 nM	–	–	1.29
Cc1nc2c(F)cc(-c3nc(Nc4ccc(CN5CCOC(C)(C)C5)cn4)ncc3F)cc2n1C(C)C [Compound A48]	1000 nM	640 nM	1.08 nM	1.77 nM	–	–	1.56
Cc1nc2c(F)cc(-c3nc(Nc4ccc(CN5CCO[C@@]6(CCNC6)C5)cn4)ncc3F)cc2n1C(C)C [Compound A34, (R)—N-(5-((6-oxa-2,9-diazaspiro[4.5]decan-9-yl)methyl)pyridin-2-yl)-5-fluoro-4-(4-fluoro-1-isopropyl-2-methyl-1H-benzo[d]imidazol-6-yl)pyrimidin-2-amine]	1000 nM	200 nM	–	–	–	–	5.02
CCN1CCN(Cc2ccc(Nc3ncc(F)c(-c4cc(F)c5nc(C)n(C(C)C)c5c4)n3)nc2)CC1 [Abemaciclib FB, Abemaciclib, reference compound]	–	–	–	–	670 nM	100 nM	6.73
